Where two headings read alike, the source gives them in different places.
Assays:
[1] = tested on: KYSE-150 esophageal carcinoma cell line; assay: In vitro cell-based assay: BrdU cell proliferation ELISA; design: species or system human; conditions: KYSE-150 cells, BrdU incorporation after 168 hr of compound incubation, read-out: Cellular IC50
Method: Cell lines tested include the JMJD2C gene amplified cell line KYSE-150. This is a quantitative ELISA assay measuring DNA incorporation of BrdU during S-phase as a direct readout of cellular proliferation.
Assay Principle: This is a colorimetric immunoassay for the quantification of cell proliferation. Cells treated for 168 hr with test compounds are assayed for their ability to go through S-phase as a measure of their proliferative potential.
Assay Method: The human KYSE-150 (SMAD4 mut, TP53 mut) esophageal carcinoma cell line was seeded at 2,000 cells/well on a 96-well tissue culture treated plate. After an overnight incubation, cells were treated with compound in an 11-point dilution series with final concentrations ranging from 100 μM to 2 nM. Cells were then incubated in the presence of compound for 168 hr. After compound incubation the cells were assayed using a BrdU Cell Proliferation ELISA (Roche). The cells were first incubated with BrdU labeling reagent for 2 hr. After 2 hr, the BrdU incorporated cells were fixed and denatured, probed with an anti-BrdU-Peroxidase antibody for 1.5 hr and washed. Finally, a tetramethylbenzidine peroxidase substrate was added to each well for 15 min. followed by a H2SO4 stop solution. The plate was read at 450 nm, and the raw optical density data was transferred into XLFit (IDBS) for IC50 calculation using the formula: fit=(D+((Vmax*(x^n))/((x^n)+(Km^n)))).
Table 4 provides the cellular IC50 values of various compounds disclosed herein.

JMJD2C = JMJD2C (Homo sapiens (Human), UniProt Q9H3R0); assay: In vitro enzyme inhibition assay (JMJD2C TR-FRET); format: biochemical; conditions: 0.3 nM JMJD2C, 300 nM H3K9me3-biotin peptide, 2 μM alpha-ketoglutaric acid
Chain of JMJD2C (Q9H3R0 2-372): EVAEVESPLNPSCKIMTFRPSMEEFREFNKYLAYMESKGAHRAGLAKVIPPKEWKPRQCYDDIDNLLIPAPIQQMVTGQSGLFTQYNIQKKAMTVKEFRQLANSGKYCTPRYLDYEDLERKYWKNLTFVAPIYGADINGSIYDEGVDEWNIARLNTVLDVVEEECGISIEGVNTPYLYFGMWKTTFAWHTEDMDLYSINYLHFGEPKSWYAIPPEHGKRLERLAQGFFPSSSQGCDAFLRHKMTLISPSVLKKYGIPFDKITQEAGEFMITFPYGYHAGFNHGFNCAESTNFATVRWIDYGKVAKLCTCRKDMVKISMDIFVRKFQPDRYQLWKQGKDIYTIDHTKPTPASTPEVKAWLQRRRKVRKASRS
Method: This assay determines the ability of a test compound to inhibit JMJD2C demethylase activity. Baculovirus expressed JMJD2C (GenBank Accession #BC143571, AA 2-372) was purchased from BPS Bioscience (Cat#50105).
The ability of test compounds to inhibit the activity of JMJD2C was determined in 384-well plate-format under the following reaction conditions: 0.3 nM JMJD2C, 300 nM H3K9me3-biotin labeled peptide (Anaspec cat #64360), 2 μM alpha-ketoglutaric acid in assay buffer of 50 mM HEPES, pH 7.3, 0.005% Brij35, 0.5 mM TCEP, 0.2 mg/ml BSA, 50 μM sodium L-ascorbate, and 2 μM ammonium iron(II) sulfate. Reaction product was determined quantitatively by TR-FRET after the addition of detection reagent Phycolink Streptavidin-allophycocyanin (Prozyme) and Europium-anti-di-methylated histone H3 lysine 9 (H3K9me2) antibody (PerkinElmer) in the presence of 5 mM EDTA in LANCE detection buffer (PerkinElmer) at a final concentration of 50 nM and 1 nM, respectively.
The assay reaction was initiated by the following: 2 μl of the mixture of 900 nM H3K9me3-biotin labeled peptide and 6 μM alpha-ketoglutaric acid with 2 μl of 11-point serial diluted inhibitor in 3% DMSO were added to each well of the plate, followed by the addition of 2 μl of 0.9 nM JMJD2C to initiate the reaction. The reaction mixture was incubated at room temperature for 30 min, and terminated by the addition of 6 μl of 5 mM EDTA in LANCE detection buffer containing 100 nM Phycolink Streptavidin-allophycocyanin and 2 nM Europium-anti-H3K9me2 antibody. Plates were read by EnVisionMultilabel Reader in TR-FRET mode (excitation at 320 nm, emission at 615 nm and 665 nm) after 1 hr incubation at room temperature. A ratio was calculated (665/615) for each well and fitted to determine inhibition constant (IC50).
The ability of the compounds disclosed herein to inhibit demethylase activity was quantified and the respective IC50 value was determined. Table 3 provides the IC50 values of various compounds disclosed herein.

## 2-(4-{[4-(4-amino-piperidin-1-yl)-phenyl]-methyl-amino}-phenoxy)-pyrido[3,4-d]pyrimidin-4-ol [Example 23]
[1]
  IC50: 1 to 10 µM
JMJD2C
  IC50: 0.1 to 1 µM

## CN(c1ccc(Oc2nc(O)c3ccncc3n2)cc1)c1ccc2c(c1)OCC2(C)C [Example 116]
JMJD2C
  IC50: 0.1 to 1 µM

## CC(C)c1ccc(N(c2ccc(Oc3nc(O)c4ccncc4n3)cc2)C2CCOCC2)cc1 [Example 118, 2-(4-((4-isopropylphenyl)(tetrahydro-2H-pyran-4-yl)amino)phenoxy)pyrido[3,4-d]pyrimidin-4-ol]
[1]; Homo sapiens
  IC50: 1 to 10 µM

## CC(C)c1ccc(N(c2ccc(Oc3nc(O)c4ccncc4n3)cc2)C2CCN(C)CC2)cc1 [Example 119, 2-(4-((4-isopropylphenyl)(1-methylpiperidin-4-yl)amino)phenoxy)pyrido[3,4-d]pyrimidin-4-ol]
[1]; Homo sapiens
  IC50: > 10 µM
JMJD2C
  IC50: ≤ 0.1 µM

## CCCN(c1ccc(Oc2nc(O)c3ccncc3n2)cc1)c1ccc(C(C)C)cc1 [Example 120, 2-(4-((4-isopropylphenyl)(propyl)amino)phenoxy)pyrido[3,4-d]pyrimidin-4-ol]
[1]; Homo sapiens
  IC50: 1 to 10 µM
JMJD2C
  IC50: 0.1 to 1 µM

## CC(C)c1ccc(Nc2ccc(Oc3nc(O)c4ccncc4n3)cc2)cc1 [Example 121, 2-(4-((4-isopropylphenyl)amino)phenoxy)pyrido[3,4-d]pyrimidin-4-ol]
[1]; Homo sapiens
  IC50: 1 to 10 µM
JMJD2C
  IC50: ≤ 0.1 µM

## CC(C)c1ccc(N(c2ccc(Oc3nc(O)c4ccncc4n3)cc2)C(C)C)cc1 [Example 122]
JMJD2C
  IC50: 1 to 10 µM

## CC(C)CN(c1ccc(Oc2nc(O)c3ccncc3n2)cc1)c1ccc(C(C)C)cc1 [Example 123, 2-(4-(isobutyl(4-isopropylphenyl)amino)phenoxy)pyrido[3,4-d]pyrimidin-4-ol]
JMJD2C
  IC50: 1 to 10 µM

## CC(C)c1ccc(N(c2ccc(Oc3nc(O)c4ccncc4n3)cc2)C2CCCN(C)C2)cc1 (centres unmarked) [Example 124, 2-(4-((4-isopropylphenyl)(1-methylpiperidin-3-yl)amino)phenoxy)pyrido[3,4-d]pyrimidin-4-ol]
[1]; Homo sapiens
  IC50: 1 to 10 µM
JMJD2C
  IC50: ≤ 0.1 µM

## CC(C)c1ccc(N(c2ccc(Oc3nc(O)c4ccncc4n3)cc2)C2CCCC2)cc1 [Example 125, 2-(4-(cyclopentyl(4-isopropylphenyl)amino)phenoxy)pyrido[3,4-d]pyrimidin-4-ol]
[1]; Homo sapiens
  IC50: ≤ 0.1 µM
JMJD2C
  IC50: 1 to 10 µM

## CC(C)c1ccc(N(c2ccc(Oc3nc(O)c4ccncc4n3)cc2)C2CCNC2)cc1 (centres unmarked) [Example 126, 2-(4-((4-isopropylphenyl)(pyrrolidin-3-yl)amino)phenoxy)pyrido[3,4-d]pyrimidin-4-ol]
[1]; Homo sapiens
  IC50: ≤ 0.1 µM
JMJD2C
  IC50: ≤ 0.1 µM

## CC(C)c1ccc(N(c2ccc(Oc3nc(O)c4ccncc4n3)cc2)C2CCN(C)C2)cc1 (centres unmarked) [Example 127, 2-(4-((4-isopropylphenyl)(1-methylpyrrolidin-3-yl)amino)phenoxy)pyrido[3,4-d]pyrimidin-4-ol]
[1]; Homo sapiens
  IC50: > 10 µM
JMJD2C
  IC50: ≤ 0.1 µM

## Cc1ccc2c(c1)CCN2c1ccc(Oc2nc(O)c3ccncc3n2)cc1 [Example 128]
[1]; Homo sapiens
  IC50: ≤ 0.1 µM
JMJD2C
  IC50: ≤ 0.1 µM

## Cc1ccc2c(ccn2-c2ccc(Oc3nc(O)c4ccncc4n3)cc2)c1 [Example 129, 2-(4-(5-methyl-1H-indol-1-yl)phenoxy)pyrido[3,4-d]pyrimidin-4-ol]
[1]; Homo sapiens
  IC50: 1 to 10 µM
JMJD2C
  IC50: ≤ 0.1 µM

## CC(C)c1ccc(N(c2ccc(Oc3nc(O)c4ccncc4n3)cc2)C2CCCNC2)cc1 (centres unmarked) [Example 130, 2-(4-((4-isopropylphenyl)(piperidin-3-yl)amino)phenoxy)pyrido[3,4-d]pyrimidin-4-ol]
[1]; Homo sapiens
  IC50: > 10 µM
JMJD2C
  IC50: ≤ 0.1 µM

## Cc1cc(Oc2nc(O)c3ccncc3n2)ccc1N(C)c1ccc(C(C)C)cc1 [Example 131, 2-(4-((4-isopropylphenyl)(methyl)amino)-3-methylphenoxy)pyrido[3,4-d]pyrimidin-4-ol]
[1]; Homo sapiens
  IC50: > 10 µM
JMJD2C
  IC50: 0.1 to 1 µM

## CC(C)N1CCN(c2cccc(N(C)c3ccc(Oc4nc(O)c5ccncc5n4)cc3)c2)CC1 [Example 132, 2-(4-((3-(4-isopropylpiperazin-1-yl)phenyl)(methyl)amino)phenoxy)pyrido[3,4-d]pyrimidin-4-ol]
[1]; Homo sapiens
  IC50: 0.1 to 1 µM

## CN1CCN(c2cccc(N(C)c3ccc(Oc4nc(O)c5ccncc5n4)cc3C(F)(F)F)c2)CC1 [Example 133, 2-(4-(methyl(3-(4-methylpiperazin-1-yl)phenyl)amino)-3-(trifluoromethyl)phenoxy)pyrido[3,4-d]pyrimidin-4-ol]
[1]; Homo sapiens
  IC50: 1 to 10 µM
JMJD2C
  IC50: ≤ 0.1 µM

## Cc1cc(Oc2nc(O)c3ccncc3n2)ccc1N(C)c1cccc(N2CCN(C)CC2)c1 [Example 134, 2-(3-methyl-4-(methyl(3-(4-methyl-piperazin-1-yl)phenyl)amino)phenoxy)pyrido[3,4-d]pyrimidin-4-ol]
[1]; Homo sapiens
  IC50: 1 to 10 µM
JMJD2C
  IC50: ≤ 0.1 µM

## CCc1ccc(N(C)c2ccc(Oc3nc(O)c4ccncc4n3)cc2)cc1OC [Example 135, 2-(4-((4-ethyl-3-methoxyphenyl)(methyl)amino)phenoxy)pyrido[3,4-d]pyrimidin-4-ol]
[1]; Homo sapiens
  IC50: 1 to 10 µM
JMJD2C
  IC50: 0.1 to 1 µM

## CN1CC=C(c2cccc(N(C)c3ccc(Oc4nc(O)c5ccncc5n4)cc3)c2)CC1 [Example 139, 2-(4-(methyl(3-(1-methyl-1,2,3,6-tetrahydropyridin-4-yl)phenyl)amino)phenoxy)pyrido[3,4-d]pyrimidin-4-ol]
JMJD2C
  IC50: ≤ 0.1 µM

## CN1CCN(c2cccc(N(CC3CC3)c3ccc(Oc4nc(O)c5ccncc5n4)cc3)c2)CC1 [Example 142, 2-(4-((cyclopropylmethyl)(3-(4-methylpiperazin-1-yl)phenyl)amino)phenoxy)pyrido[3,4-d]pyrimidin-4-ol]
JMJD2C
  IC50: ≤ 0.1 µM

## CC(C)c1ccc(N(C)c2ccc(Oc3nc(O)c4ccncc4n3)cc2C(F)(F)F)cc1 [Example 143, 2-(4-((4-isopropylphenyl)(methyl)amino)-3-(trifluoromethyl)phenoxy)pyrido[3,4-d]pyrimidin-4-ol]
JMJD2C
  IC50: 1 to 10 µM

## CCc1ccc(N(C)c2ccc(Oc3nc(O)c4ccncc4n3)cc2C)cc1 [Example 144, 2-(4-((4-ethylphenyl)(methyl)amino)-3-methylphenoxy)pyrido[3,4-d]pyrimidin-4-ol]
JMJD2C
  IC50: ≤ 0.1 µM

## COc1ccc(N2CCN(C)CC2)cc1N(C)c1ccc(Oc2nc(O)c3ccncc3n2)cc1 [Example 145, 2-(4-((2-methoxy-5-(4-methylpiperazin-1-yl)phenyl)(methyl)amino)phenoxy)pyrido[3,4-d]pyrimidin-4-ol]
JMJD2C
  IC50: ≤ 0.1 µM

## CCOc1ccc(N2CCN(C)CC2)cc1N(C)c1ccc(Oc2nc(O)c3ccncc3n2)cc1 [Example 146, 2-(4-((2-ethoxy-5-(4-methylpiperazin-1-yl)phenyl)(methyl)amino)phenoxy)pyrido[3,4-d]pyrimidin-4-ol]
JMJD2C
  IC50: ≤ 0.1 µM

## Cc1ccc(N2CCN(C)CC2)cc1N(C)c1ccc(Oc2nc(O)c3ccncc3n2)cc1 [Example 147, 2-(4-(methyl(2-methyl-5-(4-methylpiperazin-1-yl)phenyl)amino)phenoxy)pyrido[3,4-d]pyrimidin-4-ol]
JMJD2C
  IC50: ≤ 0.1 µM

## Cc1cc(Oc2nc(O)c3ccncc3n2)ccc1N(C)c1ccc(C(C)(C)C)cc1 [Example 148, 2-(4-((4-(tert-butyl)phenyl)(methyl)amino)-3-methylphenoxy)pyrido[3,4-d]pyrimidin-4-ol]
JMJD2C
  IC50: 0.1 to 1 µM

## CCCc1ccc(N(C)c2ccc(Oc3nc(O)c4ccncc4n3)cc2C)cc1 [Example 149, 2-(3-methyl-4-(methyl(4-propylphenyl)amino)phenoxy)pyrido[3,4-d]pyrimidin-4-ol]
JMJD2C
  IC50: 0.1 to 1 µM

From patent publication US10202381B2, “Histone demethylase inhibitors” (CELGENE QUANTICEL RESEARCH, INC., priority 2014, dated 2019)
